Measured values reported in the METLIN SMRT retention time set (Domingo-Almenara et al. 2019).

Assay: gradient 5% acetonitrile 3 min, to 50% in 2 min, to 85% in 15 min, held 3 min, 100 µL/min
Settings: column: Zorbax Extend-C18 2.1 x 50 mm; eluents: water / acetonitrile, 0.1% formic acid
How it was run: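 Values are retention times taken from adduct peaks that software picked and an analyst inspected. The pure standards were run as mixtures of ~100 molecules on HPLC linked to a quadrupole time-of-flight mass spectrometer, in positive and negative ionization mode. A Zorbax Extend-C18 column (2.1 × 50 mm, 1.8 μm) was used at 100 μL/min with water and acetonitrile, each including 0.1% formic acid.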

| Structure (SMILES) | RP-LC retention time [s] |
| --- | --- |
| CCC(C)NC(=O)CSc1nc(N2CCc3ccccc3C2)nc2ccccc12 (stereo not drawn) | 795 |
| CCCc1sc(NCc2cccc(OC)c2O)nc1-c1cc(C)ccc1C | 911 |
| Cc1nc(Cn2cccc2C(=O)N2CCc3ccccc32)no1 | 885 |
| NS(=O)(=O)c1cccnc1Nc1ccc(F)c(Cl)c1 | 879 |
| COc1ccc(N2CC(c3nc(-c4cc(OC)c(OC)c(OC)c4)no3)CC2=O)cc1Cl (stereo not drawn) | 905 |
| Cc1cc(C)c(S(=O)(=O)N2CC(c3nc(Cc4ccccc4)no3)C2)cc1C | 1190 |
| Cc1cccc(OCCc2noc(C3CCCN3)n2)c1 (stereo not drawn) | 645 |
| Cc1ccc2nc(N3CCN(Cc4ccccc4)CC3)c(-c3noc(C)n3)cc2c1 | 686 |
| CCCn1cc(C(=O)NCCCN(C)C)c(S(=O)(=O)N2CCN(c3ccc(Cl)cc3)CC2)n1 | 757 |
| Cc1ccc(Sc2nccnc2N2CCCC(C(=O)NCc3ccc(F)cc3F)C2)cc1 (stereo not drawn) | 1130 |
| CC(CCc1ccccc1)NC(=O)Cn1cccc1-c1nc(-c2ccc3c(c2)OCO3)no1 (stereo not drawn) | 1090 |
| Cc1cccc(S(=O)(=O)N2CCN(c3cnn4c(C5CC5)nnc4c3)CC2)c1 | 752 |
| CCn1cc(CCNC(=O)Nc2cccc(OC)c2)c2cccnc21 | 733 |
| Cc1noc(-c2ccc(=O)n(Cc3ccc(F)cc3)n2)n1 | 807 |
| CC(C)S(=O)(=O)c1ccc(Cc2nnc(NC(=O)C3=COCCO3)o2)cc1 | 616 |
| CC(C)n1c(=O)oc2cc(-c3noc(/C=C/c4ccccc4)n3)ccc21 | 1200 |
| Cn1cc(-c2cc3n(n2)CCC(=O)N3CCCC(=O)N2CCN(c3ccccc3)CC2)c2ccccc21 | 859 |
| Cc1nc(-c2cc(S(=O)(=O)N3CCC(C(=O)NC4CCCCCCC4)CC3)c(C)s2)no1 | 1070 |
| CCN(Cc1ccccc1)C(=O)Cn1c(N2CCCC2)nc(C)cc1=O | 660 |
| COc1ccc(N2CCN(c3cc(SCC(=O)Nc4ccc5c(c4)OCO5)ncn3)CC2)cc1 | 900 |
| CCOc1ccc(C2Cn3nnc(-c4nc(C5CCCCC5)no4)c3CO2)cc1 (stereo not drawn) | 1290 |
| O=C(Nc1cccc(-c2cn3cccnc3n2)c1)c1ccc(Br)cc1 | 734 |

| Structure (SMILES) | RP-LC retention time [s] |
| --- | --- |
| Cc1ccc(NC(=O)Cn2nc(N3CCSCC3)c3ccccc3c2=O)c(C)c1 | 940 |
| Cc1csc(NC(=O)CSc2ccc(-c3cccnc3)nn2)n1 | 589 |
| Cc1cc(C)n(CC(=O)N2CCN(c3ccccc3F)CC2)c1-c1nc(C2CC2)no1 | 971 |
| Cc1nc(-c2ccccc2)sc1C(=O)N1CCC(C(C)C(=O)N2CCOCC2)CC1 (stereo not drawn) | 728 |
| CCN1CCN(S(=O)(=O)c2ccc(/C=C\c3onc(C)c3NC(=O)C3CC3)cc2)CC1 | 639 |
| CCn1cc(-c2ccc(Cl)cc2)cc1C(=O)NCCCN1CCCC1=O | 879 |
| O=c1n(CCc2ccccc2)nc2ccc(S(=O)(=O)N3CCOCC3)cn12 | 809 |
| Cc1ccc2c(c1)C(=O)NC1(CCN(C(=O)c3ccccc3)CC1)N2C | 748 |
| Cc1ccc(-c2csc(NC(=O)C(C)(C)C)n2)cc1 | 1080 |
| Cc1ccc(S(=O)(=O)Nc2ccc(C)n(CC(=O)O)c2=O)cc1 | 694 |
| Cc1nc(N2CCOCC2)c2c(C(=O)N3CCN(c4ccc(Cl)cc4)CC3)c(C)oc2n1 | 895 |
| CCC(C)NC(=O)CN1c2ccc(F)cc2-c2ccccc2S1(=O)=O (stereo not drawn) | 870 |
| CCCN1N=C(C(=O)N2CCCCCC2)S(=O)(=O)c2ccc(C)cc21 | 991 |
| CN1C(=O)CCc2cc(NC(=O)c3ccoc3)ccc21 | 653 |
| CCCn1cc(C(=O)NCCOC)c(S(=O)(=O)N2CCN(c3ccccc3OCC)CC2)n1 | 959 |
| COc1ccc(N2CCN(c3ncc(S(=O)(=O)c4ccccc4)c(N)n3)CC2)cc1 | 848 |
| CCCCNC(=O)CN1C(=O)C2CCCCN2c2ccc(S(=O)(=O)N3CCCC3)cc21 (stereo not drawn) | 873 |
| CCSc1nc2c(s1)c(=O)n(-c1ccccc1)c(=O)n2CC(=O)NCc1ccccc1 | 924 |
| CCCn1cc(S(=O)(=O)N2CCN(c3ccccc3Cl)CC2)c2cccnc21 | 1150 |
| Cc1ccc(CNC(=O)Cn2nc3c4cc(-c5cc(C)ccc5C)nn4ccn3c2=O)cc1 | 985 |
| CC(=O)Nc1ccc(C2(C(=O)O)CCC2)cc1 | 637 |
| O=C(CN1C(=O)C(C(=O)N2CCCC2)Sc2ccccc21)NCc1cccc(Br)c1 (stereo not drawn) | 972 |

| Structure (SMILES) | RP-LC retention time [s] |
| --- | --- |
| CN(C)CCNC(=O)COc1ccccc1-c1nnc(-c2ccccc2)o1 | 659 |
| Cc1cc(C)n(Cc2nc(-c3ccc(NC(=O)Cc4ccc(Cl)cc4)cc3)oc2C)n1 | 997 |
| O=C(c1ccsc1)N1CCC(n2c(C3CCCC3)nc3cccnc32)C1 (stereo not drawn) | 636 |
| Cc1cc(=O)n(CC(=O)NCc2ccccc2)c(N2CCCCC2)n1 | 652 |
| O=C(C1=NNc2ccccc2S1(=O)=O)N1CCOCC1 | 618 |
| COC[C@@H]1CN(S(=O)(=O)Cc2ccccc2)C[C@H]1c1ccccn1 | 693 |
| CCCN1C(=O)c2ccccc2C(C(=O)N2CCOCC2)C1c1cc(OC)c(OC)c(OC)c1 (stereo not drawn) | 684 |
| Cc1noc([C@@H]2CC(F)(F)CN2C(=O)c2coc(C)n2)n1 | 694 |
| O=C(C1CC1)N1CCC(Cc2noc(C3CC3)n2)C1 (stereo not drawn) | 686 |
| Cc1ccc(Oc2nccnc2N2CCCC(C(=O)N3CCN(c4cc(C)ccc4C)CC3)C2)cc1 (stereo not drawn) | 1400 |
| COc1ccc(OC)c(-c2cn3ccn(-c4cccc(Cl)c4)c(=O)c3n2)c1 | 887 |
| CC(C)n1cnc2cc(CNC(=O)c3cc(F)ccc3F)ccc21 | 610 |
| CCOC(=O)c1noc2ncnc(Nc3cccc(C)c3C)c12 | 948 |
| CCN1CCN(c2cc(C)c3cc(NC(=O)Cc4cccs4)ccc3n2)CC1 | 578 |
| O=C(CCc1nnc2c(N3CCCCC3)nc3ccccc3n12)NCc1ccccc1F | 903 |
| Clc1ccc(-c2ccc(CNc3nn[nH]n3)o2)c(Cl)c1 | 845 |
| COc1cccc(NC(=O)C2c3cc(OC)c(OC)cc3C(=O)N3CCc4ccccc4C23)c1 (stereo not drawn) | 809 |
| COc1ccc(Br)cc1CNC(=O)c1ccc2c(c1)NC(=O)C1CCCCN21 (stereo not drawn) | 884 |
| Cc1ccccc1S(=O)(=O)N1CCC(n2cnnc2C2CC2)CC1 | 706 |
| O=C(Nc1cnc(N2CCCCC2)nc1)c1cc(F)cc(F)c1 | 984 |
| CCCS(=O)(=O)Nc1ccc(F)c(C(=O)c2c[nH]c3ncc(-c4ccc(Cl)cc4)cc23)c1F | 1130 |
| O=C(NCc1ccc(F)cc1)C1CCN(S(=O)(=O)c2cc(-c3noc(C4CC4)n3)cs2)CC1 | 958 |

| Structure (SMILES) | RP-LC retention time [s] |
| --- | --- |
| CCS(=O)(=O)c1ccc(C(=O)Nc2nc3c(s2)CC(C)CC3)cc1 (stereo not drawn) | 867 |
| COc1ccc(Nc2n[nH]nc2C(=O)Nc2ccccc2Br)cc1 | 1050 |
| Cc1nn(-c2ccc(Cl)cc2)c(C)c1S(=O)(=O)N1CCC(C(=O)N2CCCCC2)CC1 | 995 |
| O=C(Cc1cccs1)Nc1ccc(N2CCN(C3CCCCC3)C2=O)nc1 | 804 |
| COCC(=O)Nc1ccccc1NC(=O)c1ccco1 | 618 |
| Cc1c(Cl)cccc1NC(=O)Cn1c(=O)n(-c2ccc(F)cc2)c(=O)c2c1cc(C)n2C | 880 |
| O=C(COc1ccccc1)Nc1ccc2c(c1)N(C(=O)c1ccco1)CCC2 | 899 |
| Cc1cc(N2CCC(NC(=O)Nc3ccccc3C(F)(F)F)C2=O)ccc1F (stereo not drawn) | 915 |
| CCN1CCN(CCCNC(=O)C2CCCN(c3ncnc4onc(C)c34)C2)CC1 (stereo not drawn) | 557 |
| O=C(Nc1ccc2c(c1)OCCO2)C1CCN(c2cc(N3CCCCC3)ncn2)CC1 | 667 |
| O=C1CN(C(=O)CCC[C@@H]2[C@H]3CCCN4CCC[C@@H](CN2C(=O)c2cccnc2)[C@@H]34)CCN1 | 629 |
| O=C(CCc1nc2ccccc2s1)NCC12CCCC=C1NC(=O)CC2 (stereo not drawn) | 695 |
| CC(=O)N1c2ccccc2CC1c1nc(C2CC2)no1 (stereo not drawn) | 820 |
| CN(C)c1ccc(C(CNC(=O)COc2ccc(Cl)cc2)N(C)C)cc1 (stereo not drawn) | 683 |
| COCCN1C(=O)c2cccn2CC1CNC(=O)Cc1c(C)noc1C (stereo not drawn) | 610 |
| COC(=O)c1c(C)[nH]c(C(=O)N2CCC(CC(=O)NC(C)CCc3ccccc3)CC2)c1C (stereo not drawn) | 880 |
| COc1ccccc1CNC(=O)C1CCN(S(=O)(=O)c2ccc3[nH]c(=O)ccc3c2)CC1 | 714 |
| CCC(C)NC(=O)c1cccn1Cc1noc(-c2ccc(Cl)cc2)n1 (stereo not drawn) | 1080 |
| COc1ccc(C2C(=O)N(CCc3ccccc3)CC(=O)N2Cc2cccs2)cc1 (stereo not drawn) | 964 |
| COc1ccccc1NC(=O)C1CCN(S(=O)(=O)c2cc(-c3noc(C4CC4)n3)cs2)CC1 | 1020 |
| O=C1Nc2ccccc2SC1C(=O)N1CCC(C(=O)N2CC=C(c3ccccc3)CC2)CC1 (stereo not drawn) | 831 |
| Cc1c(C(=O)N2CCC(C(=O)NC3CCN(Cc4ccccc4)CC3)CC2)sc2nc[nH]c(=O)c12 | 568 |
